Literature values in PubChem BioAssay AID1259409 (Chemical Carcinogenesis Research Information System (CCRIS), 2018).

Tested on: rodent chemically induced tumor inhibition, incidence and multiplicity
Experiment: CCRIS tumor inhibitor studies
Conditions: Dose [Inhibitor]: 0

| Structure (SMILES) | tumour outcome (control, treated, inhibition, significance) (Carcinogen: METHYLCHOLANTHRENE, 56-49-5, 5.5 MG IN 0.05 ML SUNFLOWER OIL 1/WK FOR 1 YR BEGINNING POST CARCINOGEN TREATMENT (STUDY DURATION: 24 MO), Route [Inhibitor]: GAVAGE, Species: MOUSE, Strain/Sex: SWISS/FEMALE, Target Tissue: Type of Lesion: LUNG: PAPILLARY ADENOMA AND ADENOCARCINOMA, Dose [Carcinogen]: 0.01 MG ON D 1, 7, 14 AND 21 AFTER BIRTH, Promoter: NONE USED) | tumour outcome (control, treated, inhibition, significance) (Carcinogen: METHYLCHOLANTHRENE, 56-49-5, 5.5 MG IN 0.05 ML SUNFLOWER OIL 1/WK FOR 1 YR BEGINNING POST CARCINOGEN TREATMENT (STUDY DURATION: 24 MO), Route [Inhibitor]: GAVAGE, Species: MOUSE, Strain/Sex: SWISS/MALE, Target Tissue: Type of Lesion: LIVER: HEPATOCELLULAR ADENOMA AND CARCINOMA, Promoter: NONE USED) | tumour outcome (control, treated, inhibition, significance) (Carcinogen: METHYLCHOLANTHRENE, 56-49-5, 5.5 MG IN 0.05 ML SUNFLOWER OIL 1/WK FOR 1 YR BEGINNING POST CARCINOGEN TREATMENT (STUDY DURATION: 24 MO), Route [Inhibitor]: GAVAGE, Species: MOUSE, Strain/Sex: SWISS/MALE, Target Tissue: Type of Lesion: LUNG: PAPILLARY ADENOMA AND ADENOCARCINOMA, Dose [Carcinogen]: 0.01 MG ON D 1, 7, 14 AND 21 AFTER BIRTH, Promoter: NONE USED) | tumour outcome (control, treated, inhibition, significance) (Carcinogen: METHYLCHOLANTHRENE, 56-49-5, 5.5 MG IN 0.05 ML SUNFLOWER OIL 1/WK FOR 1 YR BEGINNING POST CARCINOGEN TREATMENT (STUDY DURATION: 24 MO), Route [Inhibitor]: GAVAGE, Species: MOUSE, Strain/Sex: SWISS/MALE, Target Tissue: Type of Lesion: SKIN: SARCOMA AND CARCINOMA, Dose [Carcinogen]: 0.01 MG ON D 1, 7, 14 AND 21 AFTER BIRTH, Promoter: NONE USED) | tumour outcome (control, treated, inhibition, significance) (Carcinogen: METHYLCHOLANTHRENE, 56-49-5, 5.5 MG IN 0.05 ML SUNFLOWER OIL 1/WK FOR 1 YR BEGINNING POST CARCINOGEN TREATMENT (STUDY DURATION: 24 MO), Route [Inhibitor]: GAVAGE, Species: MOUSE, Strain/Sex: SWISS/MALE, Target Tissue: Type of Lesion: SPLEEN: LYMPHOMA, Dose [Carcinogen]: 0.01 MG ON D 1, 7, 14 AND 21 AFTER BIRTH, Promoter: NONE USED) | tumour outcome (control, treated, inhibition, significance) (Carcinogen: SAFROLE, 94-59-7, 5.5 MG IN 0.05 ML SUNFLOWER OIL 1/WK FOR 1 YR BEGINNING POST CARCINOGEN TREATMENT (STUDY DURATION: 24 MO), Route [Inhibitor]: GAVAGE, Species: MOUSE, Strain/Sex: SWISS/FEMALE, Target Tissue: Type of Lesion: LUNG: PAPILLARY ADENOCARCINOMA, Dose [Carcinogen]: 0.2 MG ON D 1 AND 7 AFTER BIRTH THEN 0.4 MG ON D 14 AND 21, Promoter: NONE USED) | tumour outcome (control, treated, inhibition, significance) (Carcinogen: SAFROLE, 94-59-7, 5.5 MG IN 0.05 ML SUNFLOWER OIL 1/WK FOR 1 YR BEGINNING POST CARCINOGEN TREATMENT (STUDY DURATION: 24 MO), Route [Inhibitor]: GAVAGE, Species: MOUSE, Strain/Sex: SWISS/FEMALE, Target Tissue: Type of Lesion: SKIN: SARCOMA, Dose [Carcinogen]: 0.2 MG ON D 1 AND 7 AFTER BIRTH THEN 0.4 MG ON D 14 AND 21, Promoter: NONE USED) | tumour outcome (control, treated, inhibition, significance) (Carcinogen: SAFROLE, 94-59-7, 5.5 MG IN 0.05 ML SUNFLOWER OIL 1/WK FOR 1 YR BEGINNING POST CARCINOGEN TREATMENT (STUDY DURATION: 24 MO), Route [Inhibitor]: GAVAGE, Species: MOUSE, Strain/Sex: SWISS/MALE, Target Tissue: Type of Lesion: LIVER: HEPATOCELLULAR CARCINOMA, Dose [Carcinogen]: 0.2 MG ON D 1 AND 7 AFTER BIRTH THEN 0.4 MG ON D 14 AND 21, Promoter: NONE USED) | tumour outcome (control, treated, inhibition, significance) (Carcinogen: SAFROLE, 94-59-7, 5.5 MG IN 0.05 ML SUNFLOWER OIL 1/WK FOR 1 YR BEGINNING POST CARCINOGEN TREATMENT (STUDY DURATION: 24 MO), Route [Inhibitor]: GAVAGE, Species: MOUSE, Strain/Sex: SWISS/MALE, Target Tissue: Type of Lesion: LUNG: PAPILLARY ADENOCARCINOMA, Dose [Carcinogen]: 0.2 MG ON D 1 AND 7 AFTER BIRTH THEN 0.4 MG ON D 14 AND 21, Promoter: NONE USED) | tumour outcome (control, treated, inhibition, significance) (Carcinogen: SAFROLE, 94-59-7, 5.5 MG IN 0.05 ML SUNFLOWER OIL 1/WK FOR 1 YR BEGINNING POST CARCINOGEN TREATMENT (STUDY DURATION: 24 MO), Route [Inhibitor]: GAVAGE, Species: MOUSE, Strain/Sex: SWISS/MALE, Target Tissue: Type of Lesion: SKIN: SARCOMA, Dose [Carcinogen]: 0.2 MG ON D 1 AND 7 AFTER BIRTH THEN 0.4 MG ON D 14 AND 21, Promoter: NONE USED) | tumour outcome (control, treated, inhibition, significance) (Carcinogen: SAFROLE, 94-59-7, 5.5 MG IN 0.05 ML SUNFLOWER OIL 1/WK FOR 1 YR BEGINNING POST CARCINOGEN TREATMENT (STUDY DURATION: 24 MO), Route [Inhibitor]: GAVAGE, Species: MOUSE, Strain/Sex: SWISS/MALE, Target Tissue: Type of Lesion: SPLEEN: LYMPHOMA, Dose [Carcinogen]: 0.2 MG ON D 1 AND 7 AFTER BIRTH THEN 0.4 MG ON D 14 AND 21, Promoter: NONE USED) | tumour outcome (control, treated, inhibition, significance) (Carcinogen: SAFROLE, 94-59-7, 5.5 MG IN 0.05 ML SUNFLOWER OIL 1/WK FOR 1 YR BEGINNING POST CARCINOMA TREATMENT (STUDY DURATION: 24 MO), Route [Inhibitor]: GAVAGE, Species: MOUSE, Strain/Sex: SWISS/FEMALE, Target Tissue: Type of Lesion: SPLEEN: LYMPHOMA, Dose [Carcinogen]: 0.2 MG ON D 1 AND 7 AFTER BIRTH THEN 0.4 MG ON D 14 AND 21, Promoter: NONE USED) | tumour outcome (control, treated, inhibition, significance) (Carcinogen: TANNIC ACID, 1401-55-4, 5.5 MG IN 0.05 ML SUNFLOWER OIL 1/WK FOR 1 YR BEGINNING POST CARCINOGEN TREATMENT (STUDY DURATION: 24 MO), Route [Inhibitor]: GAVAGE, Species: MOUSE, Strain/Sex: SWISS/FEMALE, Target Tissue: Type of Lesion: LUNG: PAPILLARY ADENOCARCINOMA, Dose [Carcinogen]: 25 MG/KG BW ON D 1, 7, 14 AND 21 AFTER BIRTH, Promoter: NONE USED) | tumour outcome (control, treated, inhibition, significance) (Carcinogen: TANNIC ACID, 1401-55-4, 5.5 MG IN 0.05 ML SUNFLOWER OIL 1/WK FOR 1 YR BEGINNING POST CARCINOGEN TREATMENT (STUDY DURATION: 24 MO), Route [Inhibitor]: GAVAGE, Species: MOUSE, Strain/Sex: SWISS/FEMALE, Target Tissue: Type of Lesion: SPLEEN: LYMPHOMA, Dose [Carcinogen]: 25 MG/KG BW ON D 1, 7, 14 AND 21 AFTER BIRTH, Promoter: NONE USED) | tumour outcome (control, treated, inhibition, significance) (Carcinogen: TANNIC ACID, 1401-55-4, 5.5 MG IN 0.05 ML SUNFLOWER OIL 1/WK FOR 1 YR BEGINNING POST CARCINOGEN TREATMENT (STUDY DURATION: 24 MO), Route [Inhibitor]: GAVAGE, Species: MOUSE, Strain/Sex: SWISS/MALE, Target Tissue: Type of Lesion: LUNG: PAPILLARY ADENOCARCINOMA, Dose [Carcinogen]: 25 MG/KG BW ON D 1, 7, 14 AND 21 AFTER BIRTH, Promoter: NONE USED) | tumour outcome (control, treated, inhibition, significance) (Carcinogen: TANNIC ACID, 1401-55-4, 5.5 MG IN 0.05 ML SUNFLOWER OIL 1/WK FOR 1 YR BEGINNING POST CARCINOGEN TREATMENT (STUDY DURATION: 24 MO), Route [Inhibitor]: GAVAGE, Species: MOUSE, Strain/Sex: SWISS/MALE, Target Tissue: Type of Lesion: SPLEEN: LYMPHOMA, Dose [Carcinogen]: 25 MG/KG BW ON D 1, 7, 14 AND 21 AFTER BIRTH, Promoter: NONE USED) | outcome (Carcinogen: N-NITROSOBIS(2-HYDROXYPROPYL)AMINE, 53609-64-6, 10000 PPM IN DIET FOR 27 WK BEGINNING 9 WK POST CARCINOGEN TREATMENT (STUDY DURATION: 37 WK), Route [Inhibitor]: ORAL, Species: RAT, Strain/Sex: F344/FEMALE, Target Tissue: Type of Lesion: THYROID GLAND: ADENOMA, Dose [Carcinogen]: 2000 MG/KG BW 1 WK POST BILATERAL OVARIECTOMY, Promoter: SULFADIMETHOXINE, 122-11-2) | tumour outcome (control, treated, inhibition, significance) (Carcinogen: N-NITROSOBIS(2-HYDROXYPROPYL)AMINE, 53609-64-6, 10000 PPM IN DIET FOR 27 WK BEGINNING 9 WK POST CARCINOGEN TREATMENT (STUDY DURATION: 37 WK), Route [Inhibitor]: ORAL, Species: RAT, Strain/Sex: F344/FEMALE, Target Tissue: Type of Lesion: THYROID GLAND: CARCINOMA, Dose [Carcinogen]: 2000 MG/KG BW 1 WK POST BILATERAL OVARIECTOMY, Promoter: SULFADIMETHOXINE, 122-11-2) |
| --- | --- | --- | --- | --- | --- | --- | --- | --- | --- | --- | --- | --- | --- | --- | --- | --- | --- | --- |
| O=C(/C=C/C=C/c1ccc2c(c1)OCO2)N1CCCCC1 | 7/11 (64%), 9/12 (75%), -17%, not calculated | 3/13 (23%), 4/13 (31%), -35%, not calculated | 10/13 (77%), 10/13 (77%), 0%, not significant | 5/13 (38%), 2/13 (15%), 61%, not calculated | 2/13 (15%), 3/13 (23%), -53%, not calculated | 3/18 (17%), 2/19 (11%), 35%, not calculated | 2/18 (11%), 0/19 (0%), 100%, not calculated | 7/24 (29%), 1/23 (4%), 86%, p<0.05 | 5/24 (21%), 2/23 (9%), 57%, not calculated | 2/24 (8%), 0/23 (0%), 100%, not calculated | 6/24 (25%), 3/23 (13%), 48%, not calculated | 9/18 (50%), 7/19 (37%), 26%, not calculated | 2/8 (25%), 1/9 (11%), 56%, not calculated | 4/8 (50%), 4/9 (44%), 12%, not calculated | 3/12 (25%), 2/12 (17%), 32%, not calculated | 5/12 (42%), 3/12 (25%), 40%, not calculated |  |  |
| CC(C)(c1ccc(O)cc1)c1ccc(O)cc1 |  |  |  |  |  |  |  |  |  |  |  |  |  |  |  |  | 0/12 (0%), 0/15 (0%), 0%, not significant | 10/12 (83%), 4/15 (27%), 67%, p<0.01 |
